Laboratory results: patent publication US20080145440A1, “Microparticle preparation and medical composition” (priority 2006, published 2008)

How the values were obtained:
[1] = test system: mouse-derived colon cancer cells (colon-26); assay: In vitro cellular toxicity experiment (CCK-8); format: cell-based; details: colon-26, 10 μg/ml, forty eight hour treatment
Experimental: Using mouse-derived colon cancer cells (colon-26), a toxicity of the microparticle to cancer cells was experimented. Specifically, the experiment was conducted according to the following method:
The colon-26 cells were disseminated on a 96 well-plate at 1′104 concentration and cultured for twenty four hours. […] Cellular toxicity was examined by measuring absorbency under 450 nm with a CCK-8 kit (Dojindo, Kumamoto, Japan), the CCK-8 kit measuring formazan substitution of tetrazolium based on an intercellular enzyme.

[2] = test system: Mouse-derived colon cancer (colon-26 adenocarcinoma) cells; assay: In vivo experiment of anticancer treatment; set-up: species or system BALB/c male mouse; details: cancer-bearing mice
Experimental: As an experimental animal, a six-week-old BALB/c male mouse (weight 25 g, Shimizu Laboratory Supplies Co., Ltd.) was selected. […] In the experiment, the same agent treatment was performed as in the toxicity experiment. Specifically, the experiment was conducted in the following methods:
Weight changes and survival rate were observed from the day of the administration.

N.N.[Cl][Pt][Cl] [free CDDP, cis-dichlorodiammineplatinum (II)]
cytostatic effect [1]: approximately 50% | day of minimum weight after the administration ([2]; 20 mg/kg of CDDP intraperitoneal): fifth day | anticancer effect, concentration difference 5 mg/kg vs 10 mg/kg ([2]; intraperitoneal): no significant difference in the anticancer effect | start of death from cancer after the administration ([2]; intraperitoneal): started to die of cancer after a fortieth day
